Here are results for seven compounds from patent publication US20130337463A1, “Cell-Based Models of Neurodegenerative Disease” (The Trustees of the University of Pennsylvania, priority 2010, published 2013).

The pIC50 is the IC50 on a negative log10 scale, so that one unit is a factor of ten.

pIC50: −log10 of the molar value.

The test system of data set [1] is primary hippocampal neurons derived from WT C57BL6 mice. The data set is described as follows: p-α-syn aggregate formation in primary hippocampal neurons after pff addition. The data set is classed as cell-based, mouse. As to conditions: for p-α-syn aggregate formation: pffs added to DIV5 neurons, 2 weeks. As for the experimental part: Primary neuronal cultures were prepared from E16-E18 C57BL/6 mouse brains (Charles River, Wilmington, Mass.) and α-syn −/− mice (Abeliovich et al., 2000, Neuron 25:239-252). All procedures were performed according to the NIH Guide for the Care and Use of Experimental Animals and were approved by the University of Pennsylvania Institutional Animal Care and Use Committee. Hippocampi were dissected, rinsed with Hank's Balanced Salt Solution (HBSS) and digested in HBSS containing papain (20 U/mL; Worthington Biochemical Corporation; Lakewood, N.J.) containing DNase (20 μg/mL; Worthington Biochemical Corporation; Lakewood, N.J.). Following rinses in plating media (10% fetal bovine serum, 1% penicillin/streptomycin, Glutamax, B27, Neurobasal media; Invitrogen, Carlsbad, Calif.) and HBSS, dissociated hippocampal neurons were plated in plating media onto poly-D-lysine (0.1 mg/mL, diluted in borate buffer, 0.1M, pH8.4) coated coverslips (Carolina Biological Supply, Burlington, N.C.) in 24 well trays at 20,000-40,000 cells/cm^2 or poly-D-lysine coated 60 mm dishes at 70-100,000 cells/cm2. The media was then changed to neuronal media (1% penicillin/streptomycin, Glutamax, B27, Neurobasal media). Most experiments were performed at 19 days in vitro (DIV).
Recombinant full-length and truncated α-syn with and without a C-terminal myc-tag, were purified as previously described (Giasson et al., 2001, J. Biol. Chem. 276:2380-2386). α-syn pffs were generated by incubating purified α-syn (5 mg/mL in PBS) at 37° C. with constant agitation for 5 days, followed by aliquoting and storage at […]. The presence of amyloid was confirmed using Thioflavin T fluorometry. Fibrils of α-syn synthetic NAC peptide (amino acids 61-95) (Biotechnology Resource Center, Yale University) were generated as described (Giasson et al., 2001, J. Biol. Chem. 276:2380-2386). Pffs were diluted in PBS at 0.1 mg/mL, sonicated several times, and diluted in neuronal media. For a 24-well tray, 1 μg/mL of pffs were added, and 5 μg/mL of α-syn pffs were added to a […]. For WGA experiments, α-syn pffs were incubated with 1 μg/mL or 5 μg/mL WGA or preincubated for 1 hr (h) with 0.1 M GlcNAC followed by incubation with media containing α-syn pffs, GlcNAC, and WGA.
Neurons were fixed with 4% paraformaldehyde in PBS containing 4% sucrose followed by permeabilization with 0.1% Triton X-100. To determine if the pathologic α-syn aggregates were detergent-insoluble, neurons were fixed with 4% paraformaldehyde, 4% sucrose and 1% Tx-100 (Luk et al., 2009, Proc. Natl. Acad. Sci. USA 106:20051-20056). Following fixation, neurons were blocked with 3% bovine serum albumin (BSA) in PBS, and incubated in primary antibodies (Table 6) followed by Alex fluor 594 or 488-conjugated secondary antibodies (anti-mouse, anti-rabbit, anti-IgG1 and anti-IgG2a; Invitrogen; Carlsbad, Calif.) diluted in blocking buffer. To assess cell viability, cells were incubated with ethidium homodimer (2 μM, Sigma Aldrich, St. Louis, Mo.) and Hoechst 33342 (1:1000, Invitrogen, Carlsbad, Calif.) and the percent overlap between both dyes was determined using Metamorph software (Molecular Devices, Sunnyvale, Calif.).

For data set [2], the system named is T40/P301L-transfected cells. The data set is described as follows: Fibril-alone transduction without BioPORTER reagent (spontaneous PFF uptake). It counts as cell-based, human. As for the experimental part:
For fibril-alone transduction without BioPORTER reagent, cells were placed on starvation medium right before the addition of fibrils. Fibrils were processed as described above and the same amount was used as in reagent-mediated transduction. Cells were trypsinized and replated either 4 hr or 30 hr after the initial addition of fibrils. For experiments using WGA, different doses of WGA were added to starvation medium together with PFFs. To inhibit endocytosis of WGA, 0.1 M GlcNAc was incubated with medium containing PFFs and 10 µg/ml WGA for 1 hr at 37° C. before being added to cells which were pre-incubated in 0.1M GlcNAc-containing medium for 1 hr. Cells were placed on WGA-free starvation medium 5-6 hr after fibril addition and fixed after overnight incubation to minimize possible toxicity resulted from WGA treatment.
Immunocytochemistry was performed 48 hr after the initial addition of fibrils unless indicated otherwise. Cells were fixed in 4% paraformaldehyde (PFA) for 10 min and permeabilized with 0.1% Triton-X100 for 15 min, or fixed with 4% PFA containing 1% Triton-X100 for 15 min to remove soluble proteins. For visualization of microtubules, cells were fixed with 0.3% glutaraldehyde in PEM buffer (80 mM PIPES, pH6.8, 5 mM EGTA, 1 mM MgCl2) for 10 min, extracted with 1% Triton-X100 for 15 min before being quenched with 10 mg/ml sodium borohydride for 7 min followed by 0.1 M glycine for 20 min. […]
For quantifying the percentage of cells developing tau aggregates with different combinations of endogenous tau and PFFs, 10-20 random-field images were taken at 40× magnification for each combination and at least two independent experiments were performed. For quantification of MT-bundling and PFF-induced tau aggregation in the absence of bioPORTER reagent under various conditions (i.e. different temperatures, with or without WGA/GlcNAc), 10 random-field images were taken at 20× magnification for each condition in each experiment and 3-4 independent experiments were performed. […]

The test system of data set [3] is QBI-WT-Syn cells (QBI-293 cells stably expressing WT α-Syn). The data set is described as follows: α-Syn inclusion formation after Bioporter transduction of QBI-WT-Syn cells. The settings on record: immunostaining 48 h after transduction. It counts as cell-based, human. On the procedure:
QBI cells were plated in 35-mm tissue culture plates and allowed to reach 80-90% confluence for transduction experiments. Cells were transferred to serum-free media 1 h before transduction. For each plate, 10 μL of cationic-liposomal protein transduction reagent (Bioporter; Sigma) was added to a 1.5-mL Microfuge tube and evaporated as per the manufacturer's guidelines. The resulting reagent dry-film was then directly resuspended with 80 μL of PBS containing α-Syn fibrils (100 μg/mL) fragmented by brief sonication with a hand-held probe. Protein:reagent complexes were allowed to form at room temperature for 10 min, after which the mixture was further diluted in OptiMEM (Invitrogen) and added to cells. Cells were then further incubated for 4 h, washed twice with Versene and 0.5% trypsin/EDTA to remove extracellular α-Syn fibrils, and transferred onto 6-well tissue culture plates or poly(d-lysine)-coated glass coverslips. […]
Cells on coverslips were washed with PBS and fixed with 4% paraformaldehyde. […] Epifluorescence images were obtained by using a Nikon Eclipse 3000 inverted microscope equipped with a CoolSNAP HQ camera (Roper Scientific) and analyzed by using Metamorph 6.0 (Molecular Devices). […] Confocal laser scanning microscopic images were obtained by using a Zeiss LSM510 microscope and analyzed by using Volocity software (Improvision).

A further data set concerns AMPAR. As to conditions: published (Dev et al., 1996); cited from earlier work.

In the case of `CC(=O)N[C@H]1C(O)O[C@H](CO)[C@@H](O)[C@@H]1O` (stereo partly shown) [GlcNAc, N-acetyl glucosamine], in data set [1] (0.1 M GlcNAc), the “effect on WGA-enhanced aggregate formation” value is “reduced the effects of WGA on α-syn pff-induced aggregate formation”. Moreover, the “effect on WGA-enhanced PFF uptake and tau aggregation” value in data set [2] (0.1 M GlcNAc added to the medium) is given as “significantly attenuated”.

For the compound “β-galactosidase: unrelated soluble protein”, the inclusion formation result in data set [3] was “did not result in inclusion formation”.

On to “α-syn-NAC: fibrils of α-syn synthetic NAC peptide (amino acids 61-95)”, for which, in data set [1], the p-α-syn aggregate formation result is reported as “resulted in endogenous mouse α-syn fibrillar LB-like aggregates”.

For the compound `NS(=O)(=O)c1cccc2c1c([N+](=O)[O-])cc1nc(O)c(O)nc12` [NBQX], the pIC50 in the data set on AMPAR was 7.33.

Turning to “α-syn-1-89: human α-syn pffs composed of residues 1-89”, the p-α-syn aggregate formation entry in data set [1] is recorded as “robust accumulation of endogenous p-α-syn aggregates”.

In the case of wheat germ agglutinin [WGA], the “effect on extent of p-α-syn pathology” value in data set [1] (co-incubation with α-syn-hWT pffs, 1 or 5 μg/mL WGA, 4 days) is “dose-dependently increased the extent of p-α-syn pathology”. The “effect on prevalence of tau aggregate-bearing cells” value in data set [2] (co-incubated with myc-K18/P301L PFFs, 0, 5, 10, 15 µg/ml WGA) is recorded as “increased the prevalence of tau aggregate-bearing cells”. The “accumulation of insoluble tau in the absence of PFFs” value in data set [2] (up to 15 µg/ml of WGA) is reported as “nor does it induce accumulation of insoluble tau in the absence of PFFs”.

With “α-syn-58-140: human α-syn pffs composed of residues 58-140”, in data set [1], the p-α-syn aggregate formation entry is recorded as “seeded formation of endogenous mouse α-syn aggregates”.
